Paper PMC10597491 (PLOS ONE, 2023)
Bridge positions count the residues as written; N and C are the ends. Ends that are not written are not given here.

What was measured:
[1] = biological target: T1, human γc ECD (Homo sapiens, UniProt P31785); assay: Competition binding ELISA, human γc ECD; details: immobilized Fc-γc ECD; tracer biotinylated MDK1188 pre-complexed with Neutravidin-HRP; 4°C
T1 construct: human IL-2Rα(aa 23–254)-Fc, Acro Cat# ILG-H5256; purchased Acro ILG-H5256
T1 sequence (P31785 23-254): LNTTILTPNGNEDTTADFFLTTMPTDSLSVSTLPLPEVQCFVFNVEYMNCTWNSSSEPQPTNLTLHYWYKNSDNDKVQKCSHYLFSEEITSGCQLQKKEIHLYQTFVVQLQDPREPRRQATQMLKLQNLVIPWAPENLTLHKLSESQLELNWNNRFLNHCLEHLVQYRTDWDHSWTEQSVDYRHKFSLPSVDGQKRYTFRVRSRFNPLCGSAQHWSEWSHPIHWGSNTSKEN
Description: (§1) (A, B) Determination of IC50 values in a competition ELISA for compound binding to human and cyno IL-7Rα and γc. The assay format is IL-7Rα-(His)6-tagged ECD or Fc-γc ECD immobilized on 96-well plates. Tracers are C-terminal biotinylated forms of the reference IL-7Rα and γc peptide ligands, each pre-complexed with Neutravidin-HRP (NA-HRP). (C, D) Label-free measurement of the equilibrium dissociation constant (KD) for peptide binding to IL-7Rα and γc extracellular domains with peptides was performed by biolayer interferometry as detailed in methods. Red lines depict 1:1 binding fit from Gator™ software. Blue lines represent individual BLI sensogram data taken every 0.1 seconds.
(§2) Binding was determined using a competition binding ELISA. Microtiter plates (Immulon 4HBX flat bottom 96-well) were coated with 50 μL of […] human ECDs: IL-7Rα(aa 21–236)-His6, Sino Biological Cat# 10975-H08H; cynomolgus IL-7Rα(aa 21–235)-His6, Sino Biological Cat# 90332-C08H; human IL-2Rα(aa 23–254)-Fc, Acro Cat# ILG-H5256; cynomolgus IL-2Rα(aa 23–254)-Fc, made in-house, in PBS overnight at 4°C. […] Plates were washed with cold wash buffer, and bound tracer was detected using TMB One Component HRP substrate and Stop Solution (Surmodics Cat# TMBW-1000-01 and LSTP-0100-01). Absorbance at 450 nm was read using Agilent BioTek Synergy HTX Multimode Reader.

[2] = biological target: T2, cynomolgus IL-7Rα (Macaca fascicularis, UniProt Q38IC7); assay: Competition binding ELISA, cynomolgus IL-7Rα ECD; details: immobilized cynomolgus IL-7Rα-His6 ECD; biotinylated peptide/NA-HRP tracer; read-out: Competition ELISA IC50, IL-7Rα Cyno
T2 construct: cynomolgus IL-7Rα(aa 21–235)-His6, Sino Biological Cat# 90332-C08H; His6 (C); purchased Sino Biological 90332-C08H
T2 sequence (Q38IC7 21-235): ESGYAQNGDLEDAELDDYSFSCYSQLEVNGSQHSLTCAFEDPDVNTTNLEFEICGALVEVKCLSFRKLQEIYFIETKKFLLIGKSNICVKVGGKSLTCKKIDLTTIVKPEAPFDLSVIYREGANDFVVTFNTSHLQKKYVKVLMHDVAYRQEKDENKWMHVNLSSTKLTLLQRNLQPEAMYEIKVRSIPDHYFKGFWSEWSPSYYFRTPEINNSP
Description: as §1, §2

**Q.** Which results are given for “Ac-GWGIPWCTLDPGSLQCAWLGKHGGGGSGGVVCQDWEGVELCWQGG (disulfide 7-16, 32-41) [MDK1472]”?
**A.** IC50 [1]: 57 nM; IC50 [2]: 190 nM
